Results published in a melting point compilation (Tetko et al.).

Question: Which melting point does the source give for `O=C1C=C(Nc2cccc(O)c2)c2ccccc2C1=O` here?
Answer: The melting point was 300 °C.

Question: For `COC(=O)C(C)(N)Cc1c[nH]c2ccccc12` (centres undefined), which melting point is on record?
Answer: Its melting point is 139 to 142 °C.

Question: Which melting point does the source give for `CC1CC2=CC(=O)CCC2(C)C2CCC3(C)C(CCC3(C)O)C12` (centres undefined) here?
Answer: Its melting point is 164 °C.

Question: Which melting point does the source give for `CCC(Cl)C(C)Cl` (centres undefined) here?
Answer: The melting point was -77.3 °C.

Question: With `CC1(C)C(C=C(Cl)C(F)(F)F)C1C(=O)OC(C#N)c1cccc(Oc2ccccc2)c1` (centres undefined) as the molecule, how does the melting point read?
Answer: The melting point was 55.6 °C.

Question: Which melting point does the source give for `CC(CCl)OC(C)CCl` (centres undefined) here?
Answer: The melting point was -97 °C.

Question: Which melting point does the source give for `Cc1cc(C(=O)O)c2ccccc2n1` here?
Answer: Its melting point is 240 to 242 °C.

Question: For `O=C(Oc1c(F)c(F)c(F)c(F)c1F)c1cccc(Oc2ccccn2)c1`, which melting point is on record?
Answer: Its melting point is 60.5 to 61.5 °C.

Question: With `COP(=S)(Oc1cc(Cl)c(Br)cc1Cl)c1ccccc1` (centres undefined) as the molecule, how does the melting point read?
Answer: Its melting point is 70.4 °C.

Question: Which melting point does the source give for `C#CCOc1ccc(N)cc1C(=O)NCCCC` here?
Answer: Its melting point is 84 °C.

Question: With `NCCCC(=O)O` as the molecule, how does the melting point read?
Answer: The melting point was 197 to 204 °C.

Question: With `O=C(O)c1cccc(OC(F)(F)C(F)F)c1` as the molecule, how does the melting point read?
Answer: The melting point was 127 to 128 °C.

Question: With `Cc1ccc(-n2c(C=Cc3ccc([N+](=O)[O-])cc3)nc3cc([N+](=O)[O-])ccc32)cc1` as the molecule, how does the melting point read?
Answer: The melting point was 267 °C.

Question: For `Cc1ccc(NN=C2C(=O)NC(=S)NC2=O)cc1`, which melting point is on record?
Answer: The melting point was 305 °C.

Question: For `O=Cc1ccc(N2CCOCC2)cc1`, which melting point is on record?
Answer: Its melting point is 66 °C.

Question: With `Cc1oc(S(=O)(=O)N2CCCC2)cc1C(=O)O` as the molecule, how does the melting point read?
Answer: The melting point was 185 °C.

Question: For `O=C(O)c1cc(O)c(O)c(O)c1`, which melting point is on record?
Answer: The melting point was 253 °C.

Question: Which melting point does the source give for `CC(=O)Nc1ccc(-c2ccc(NC(C)=O)cc2NC(C)=O)c(NC(C)=O)c1` here?
Answer: Its melting point is 283 °C.

Question: Which melting point does the source give for `Nc1nn2c(C(F)(F)F)cc(=O)[nH]c2c1/N=N/c1ccc(S(=O)(=O)O)cc1` here?
Answer: The melting point was 292 °C.

Question: For `CNCC(O)c1ccc(O)c(O)c1` (centres undefined), which melting point is on record?
Answer: The melting point was 218 °C.

Question: With `c1ccc(-c2ccc(-c3nc4ccc(-c5ccccc5)cc4o3)cc2)cc1` as the molecule, how does the melting point read?
Answer: The melting point was 199 to 201 °C.

Question: For `O=S(=O)(Cl)Cc1cccc(Br)c1`, which melting point is on record?
Answer: The melting point was 88 to 89 °C.

Question: With `O=C(Oc1ccccc1)c1c2ccccc2nc2ccccc12` as the molecule, how does the melting point read?
Answer: The melting point was 188 to 192 °C.

Question: With `O=c1n2ccccc2nc2nc3ccccc3n12` as the molecule, how does the melting point read?
Answer: Its melting point is 338 to 340 °C.

Question: Which melting point does the source give for `O=Cc1cccc(-c2ncccn2)c1` here?
Answer: Its melting point is 98 to 100 °C.

Question: Which melting point does the source give for `COC(=O)c1cccc(Cl)c1Cl` here?
Answer: Its melting point is 33 to 38 °C.

Question: With `C[C@H](O)c1ccccc1Br` as the molecule, how does the melting point read?
Answer: Its melting point is 56 to 58 °C.

Question: With `Nc1ccc2c(n1)[nH]c1ccccc12` as the molecule, how does the melting point read?
Answer: Its melting point is 202 °C.

Question: Which melting point does the source give for `CC12C=CC(=O)C=C1CCC1C2CCC2(C)C1CCC2(C)O` (centres undefined) here?
Answer: Its melting point is 164 °C.

Question: With `N#Cc1ccc(-c2ccco2)cc1` as the molecule, how does the melting point read?
Answer: Its melting point is 66 to 67 °C.

Question: For `CC(=O)OC[C@H]1O[C@@H](OC(C)=O)[C@H](OC(C)=O)[C@@H](OC(C)=O)[C@H]1OC(C)=O`, which melting point is on record?
Answer: The melting point was 144 °C.

Question: For `CCOc1ccc(-c2nnc3n2NCS3)cc1`, which melting point is on record?
Answer: The melting point was 118 to 120 °C.

Question: For `S=C(SSC(=S)N1CCCCC1)N1CCCCC1`, which melting point is on record?
Answer: The melting point was 138 °C.

Question: For `O=C(CBr)c1ccc(OC(F)F)cc1`, which melting point is on record?
Answer: Its melting point is 63 to 65 °C.

Question: Which melting point does the source give for `CC(=O)Nc1ccccc1-c1cc2ccccc2[nH]1` here?
Answer: The melting point was 151 to 152 °C.

Question: For `CC1=C(C(N)=O)C(c2ccccc2)NC(=O)N1` (centres undefined), which melting point is on record?
Answer: Its melting point is 260 to 262 °C.

Question: Which melting point does the source give for `CC12CCC(=O)CC1CCC1C2CCC2(C)C1CCC21OCCS1` (centres undefined) here?
Answer: Its melting point is 201 °C.

Question: For `OC(c1ccccc1)c1c(F)c(F)c(F)c(F)c1F` (centres undefined), which melting point is on record?
Answer: The melting point was 54 to 57 °C.

Question: For `ClC#CCl`, which melting point is on record?
Answer: Its melting point is -66 °C.

Question: For `CCOC(=O)c1c(N)sc2c1CCN(Cc1ccccc1)C2`, which melting point is on record?
Answer: Its melting point is 112 °C.

Question: For `COc1cc(Oc2ccc(Cl)cc2Cl)ccc1[N+](=O)[O-]`, which melting point is on record?
Answer: The melting point was 114 °C.

Question: For `O=C1C=C(O)C(=O)C=C1O`, which melting point is on record?
Answer: Its melting point is 220 °C.

Question: For `COc1ccc(C2CNC(=O)C2)cc1OC1CCCC1` (centres undefined), which melting point is on record?
Answer: The melting point was 127 to 133 °C.

Question: For `CCCCC(C(=O)O)C(=O)O`, which melting point is on record?
Answer: Its melting point is 104 °C.

Question: With `CC(C(=O)O)C(C)C(=O)O` (centres undefined) as the molecule, how does the melting point read?
Answer: The melting point was 120 °C.

Question: Which melting point does the source give for `N#Cc1cc([N+](=O)[O-])cc(Br)c1N` here?
Answer: Its melting point is 188 °C.

Question: Which melting point does the source give for `Nc1ccc([N+](=O)[O-])cc1O` here?
Answer: The melting point was 208 °C.

Question: With `c1ccc(-c2nc(-c3ccccc3)nc(-c3ccccc3)n2)cc1` as the molecule, how does the melting point read?
Answer: The melting point was 235 °C.

Question: For `Cc1csc(C(=O)Cl)c1Cl`, which melting point is on record?
Answer: The melting point was 57 to 58 °C.

Question: For `COC(=O)c1ccc(Cl)nc1`, which melting point is on record?
Answer: The melting point was 86 °C.

Question: For `Cc1ccc(C(=O)O)cc1Cl`, which melting point is on record?
Answer: Its melting point is 208 to 209 °C.

Question: For `CC(C)(C)OC(=O)N[C@H](Cc1ccc(F)cc1)C(=O)O`, which melting point is on record?
Answer: The melting point was 130 °C.

Question: With `NC(=S)N1CCOCC1` as the molecule, how does the melting point read?
Answer: Its melting point is 153 to 156 °C.

Question: Which melting point does the source give for `O=Cc1c[nH]c2cc(Br)ccc12` here?
Answer: Its melting point is 202 to 203 °C.

Question: For `O=C(O)C1CCOCC1`, which melting point is on record?
Answer: Its melting point is 87 to 89 °C.

Question: With `CC(C)(C)P(c1ccccc1-c1ccccc1)C(C)(C)C` as the molecule, how does the melting point read?
Answer: Its melting point is 84 to 87 °C.

Question: For `Brc1ccc(Oc2ccccc2)cc1Br`, which melting point is on record?
Answer: The melting point was under 20 °C.

Question: For `O=C(Cl)c1ccc2c(c1)OCO2`, which melting point is on record?
Answer: Its melting point is 80 to 81 °C.

Question: Which melting point does the source give for `CC(=O)Nc1ccccc1/C=C\c1ccccc1` here?
Answer: Its melting point is 115 to 117 °C.

Question: With `CCOP(=S)(OCC)Oc1ccc([N+](=O)[O-])cc1` as the molecule, how does the melting point read?
Answer: The melting point was 6.1 °C.

Question: Which melting point does the source give for `Cc1c(C)c([N+](=O)[O-])c(C)c2c1C(=O)C2` here?
Answer: The melting point was 164 °C.

Question: For `Cc1c(C)c2c(c(C)c1O)CCC(C)(C(=O)O)O2` (centres undefined), which melting point is on record?
Answer: The melting point was 189 °C.

Question: For `COc1ccc(CO)c(OC)c1`, which melting point is on record?
Answer: The melting point was 37 to 40 °C.

Question: For `CC(=O)N[C@@H](C)C(=O)N[C@@H](C)C(=O)N[C@@H](C)C(=O)O`, which melting point is on record?
Answer: Its melting point is 248 °C.
